1 molecule from PMC3964211, “Pharmacokinetic modeling optimizes inhibition of the ‘undruggable’ EWS-FLI1 transcription factor in Ewing Sarcoma” (Oncotarget, 2013) can be followed below.

The nature of series [1]: Plasma concentration after IP injection of various formulations in C57BL/6 mice. The series is classed as in vivo. The settings on record: C57BL/6 mouse plasma, 20 minutes after IP 200 mg/kg racemic mixture, 10% w/v sucrose, 1% v/v Tween 80, 5% v/v ethanol in DI water, mean ±SD, five mice. The procedure:
The poor oral bioavailability determined from the rat study caused us to focus on IV delivery. Since mice often metabolize compounds differently from rats, we also evaluated the intraperitoneal (IP) PK profle and compared it to the IV profile. We determined pharmacokinetics in C57BL/6 mice given IV (Figure 2A) or IP (Figure 2B) administrations of 75 mg/kg YK-4-279, which was the maximal solubility of compound in 20% Cremophor EL. […] In addition, drug levels in tumor were measured using SCID/bg mice with orthotopic xenografts that were treated with daily IV injections of (S)-YK-4-279 for 6 days. […] In order to determine (S)-YK-4-279 levels in the tumors, the mice were euthanized 2 hours following the fnal IV bolus dose for harvest of both tumors and plasma. […] Since the IV treatment was ineffective at reducing tumor growth, despite measurable levels in the tumor tissue, models of IP administration were used to design follow-up effcacy studies.
The plasma and tumor sample analysis was performed using calibration standards and Quality Control (QC) samples prepared in control rat or mouse plasma and tumor tissues. Plasma and tumor calibration standards were prepared from stock solutions of YK-4-279. The calibration standards, blanks, QC samples, and study samples were then processed by solid-liquid extraction (SLE) followed by analysis using liquid chromatography with mass spectrometry (LC-MS). The LC-MS systems used for the analysis of YK-4-279 was composed of Shimadzo prominence pump and auto-sampler (Kyoto, Japan), a Sciex API 5000 MS (Toronto, Ontario), with turbo ion spary in the positive ion mode. The samples for the analysis of total YK-4-279 were injected into a 50 × 2 mm Gemini- NX, 5 ¼m column (Phenomenex, Torrance, CA). The samples for the analysis of the specific enantiomers of YK-4-279 were injected into a 150 × 2 mm Lux Cellulose-2, 3 ¼m Phenomenex column. The transitions monitored were 366 amu to 135 amu for YK-4-279 and 369 amu to 138 amu for the YK-4-279-d3 internal standard. YK-4-279 concentrations were calculated using peak area response ratios and a regression equation constructed from the concentrations and peak area response ratios of the calibration standards. The lower limit of quantitation was 5.0 ng/mL in plasma and […] in tumor tissue. The concentration-time profiles were evaluated by compartmental modeling and non-compartmental analysis using WinNonlin (Pharsight Corporation, Mountain View, CA). The PK parameters obtained from the compartmental modeling were used in simulations to identify optimal dose level and dosing schedule for maintaining plasma concentration of (S)-YK-4-279 above 3 ¼M.

The subject of series [2] is A4573 xenografts. Description: IV efficacy experiment, A4573 xenografts, with plasma and tumor drug levels. Type of series: in vivo, SCID/bg mice. As for the experimental part:
(§1) The poor oral bioavailability determined from the rat study caused us to focus on IV delivery. Since mice often metabolize compounds differently from rats, we also evaluated the intraperitoneal (IP) PK profle and compared it to the IV profile. We determined pharmacokinetics in C57BL/6 mice given IV (Figure 2A) or IP (Figure 2B) administrations of 75 mg/kg YK-4-279, which was the maximal solubility of compound in 20% Cremophor EL. […] In addition, drug levels in tumor were measured using SCID/bg mice with orthotopic xenografts that were treated with daily IV injections of (S)-YK-4-279 for 6 days. […]
Twenty Fox Chase SCID beige mice per sex were inoculated with 2 million of A4573 cells. Tumor volume was monitored every day by caliper. […]
(§2) The plasma and tumor sample analysis was performed using calibration standards and Quality Control (QC) samples prepared in control rat or mouse plasma and tumor tissues. […] The transitions monitored were 366 amu to 135 amu for YK-4-279 and 369 amu to 138 amu for the YK-4-279-d3 internal standard. YK-4-279 concentrations were calculated using peak area response ratios and a regression equation constructed from the concentrations and peak area response ratios of the calibration standards. The lower limit of quantitation was 5.0 ng/mL in plasma and 5.0 ¼g/g in tumor tissue. […]

Series [3] is described as follows: Pharmacokinetics in C57BL/6 mice, IV or IP 75 mg/kg. The series is classed as in vivo. As to conditions: IV 75 mg/kg. As for the experimental part: as §1
as §2, with “tissue. The concentration-time profiles were evaluated by compartmental modeling and non-compartmental analysis using WinNonlin (Pharsight Corporation, Mountain View, CA).” for “tissue.”

`COc1ccc(C(=O)CC2(O)C(=O)Nc3c(Cl)ccc(Cl)c32)cc1` (stereo not shown) [YK-4-279]: the “(S)-YK-4-279 Concentrations” value is listed as 10.5 ± 8.6 ¼M in series [1] (0.25% lecithin, 0% DMSO, 0% soybean oil); 20.9 ± 22.8 ¼M in series [1] (1.2% lecithin, 0% DMSO, 10% soybean oil); 35.8 ± 45.0 ¼M in series [1] (1.2% lecithin, 10% DMSO, 0% soybean oil); 39.1 ± 54.6 ¼M in series [1] (1.2% lecithin, 10% DMSO, 10% soybean oil); 19.8 ± 20.5 ¼M in series [1] (2.5% lecithin, 0% DMSO, 10% soybean oil); 59.7 ± 58.6 ¼M in series [1] (2.5% lecithin, 10% DMSO, 0% soybean oil). In addition, the “(S)-YK-4-279 Concentrations” value in series [1] (2.5% lecithin, 10% DMSO, 10% soybean oil) is 21.3 ± 11.3 ¼M. Besides, in series [2] (A4573 xenografts in SCID/bg mice, 75 mg/kg IV QD), the “Effect on xenograft tumor growth” value was “tumors did not regress nor reduce their growth rate”. For the same molecule, the “Plasma levels 2 hours following the final IV bolus dose” value in series [2] (SCID/bg mice with A4573 xenografts, repeated IV injections) was 1.5–18 ¼M. For the same molecule, the “Time that peak levels would exceed 3 ¼M” value in series [3] was ~ 1 hour.
